pIC50: −log10 of the molar value.

The target of this assay is T1, human glucagon receptor (Homo sapiens, UniProt P47871).
T1 construct: expressed in transfected cells; cell membranes used
T1 sequence (P47871 26-477): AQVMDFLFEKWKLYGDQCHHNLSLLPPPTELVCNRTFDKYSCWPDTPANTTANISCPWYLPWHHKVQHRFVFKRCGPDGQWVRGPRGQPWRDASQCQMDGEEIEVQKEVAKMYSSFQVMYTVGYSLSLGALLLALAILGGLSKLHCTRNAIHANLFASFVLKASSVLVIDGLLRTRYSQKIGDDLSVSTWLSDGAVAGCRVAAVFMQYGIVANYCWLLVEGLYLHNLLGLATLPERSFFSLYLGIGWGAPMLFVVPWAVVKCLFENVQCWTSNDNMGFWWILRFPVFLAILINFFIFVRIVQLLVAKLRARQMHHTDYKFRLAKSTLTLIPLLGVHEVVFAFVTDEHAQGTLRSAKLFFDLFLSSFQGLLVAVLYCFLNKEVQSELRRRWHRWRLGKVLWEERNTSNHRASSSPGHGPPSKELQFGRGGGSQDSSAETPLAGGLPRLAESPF
Kind of assay: Glucagon Receptor Binding Assay (125I-glucagon, SPA, CHO cell membranes). The following applies: 125I-Glucagon binding to membranes of CHO cells expressing cloned human glucagon receptor; more active isomer of indicated compounds. On the procedure:
Glucagon Receptor Binding Assay
A stable CHO (Chinese hamster ovary) cell line expressing cloned human glucagon receptor was maintained as described (Chicchi, et. al. J Biol Chem 272, 7765-9 (1997); Cascieri, et. al. J Biol Chem 274, 8694-7 (1999)). To determine antagonistic binding affinity of compounds, 0.001-0.003 mg of cell membranes from these cells were pre-incubated with 0.100 mg WGA-coated PVT SPA beads (Amersham) for 20 minutes at room temperature in 25 μL of a buffer containing 50 mM Tris-HCl (pH 7.5), 5 mM MgCl2, 2 mM EDTA, 0.1% BSA and 3% glycerol in Costar 384 well plates with clear bottoms (#3706). Next, 25 μL of ^125I-Glucagon (New England Nuclear, Mass.) (1×10^−14 mol per well) and either 1 μL solutions of test compounds or 0.001 mM unlabeled glucagon or DMSO were added and mixed. After 4-12 hours incubation at room temperature, the radioactivity bound to the cell membranes was determined in a radioactive emission detection counter (Wallac-Microbeta). Data were analyzed using the Data Analyzer software program of Merck & Co., Inc. The IC50 values were calculated using non-linear regression analysis assuming single-site competition.
The term pIC50 denotes the IC50 on a negative log10 scale, so that one unit is a factor of ten. A high value points to a small IC50. In the case of `CCC[C@H](c1ccc(C(=O)NCCC(=O)O)cc1)C(c1ccc(Cl)cc1)c1ccc(F)c2ccccc12` (stereo partly drawn) [Example 1, N-(4-{(1S)-1-[(4-chlorophenyl)(4-fluoro-1-naphthyl)methyl]butyl}benzoyl)-β-alanine], the pIC50 was 8.48.
Regarding `CCC[C@H](c1ccc(C(=O)NCCC(=O)O)cc1)C(c1ccc(Cl)cc1)c1ccc2cc(OC)ccc2c1` (stereo partly drawn) [Example 2, N-(4-{(1S)-1-[(4-chlorophenyl)(6-methoxy-2-naphthyl)methyl]butyl}benzoyl)-β-alanine], the pIC50 is 9.07.
Under `CCC[C@H](c1ccc(C(=O)NCCC(=O)O)cc1)C(c1ccc(Cl)cc1)c1ccc2cc(OC(F)F)ccc2c1` (stereo partly drawn) [Example 3, N-[4-((1S)-1-{(4-chlorophenyl)[6-(difluoromethoxy)-2-naphthyl]methyl}butyl)benzoyl]-β-alanine] stands 9.43; under `CCC[C@H](c1ccc(C(=O)NCCC(=O)O)cc1)C(c1ccc(Cl)cc1)c1ccc2cc(C#N)ccc2c1` (stereo partly drawn) [Example 4], 8.82; under `CCC[C@H](c1ccc(C(=O)NCCC(=O)O)cc1)C(c1ccc(C#N)cc1)c1ccc(F)c2ccccc12` (stereo partly drawn) [Example 5, N-(4-{(1S)-1-[(4-cyanophenyl)(4-fluoro-1-naphthyl)methyl]butyl}benzoyl)-β-alanine], 8.68.
Under `CCC[C@H](c1ccc(C(=O)NC[C@H](O)C(=O)O)cc1)C(c1ccc(Cl)cc1)c1ccc2cc(OC)ccc2c1` (stereo partly drawn) [Example 7, (2S)-3-[(4-{(1S)-1-[(4-chlorophenyl)(6-methoxy-2-naphthyl)methyl]butyl}benzoyl)amino]-2-hydroxypropanoic acid] stands 8.77; under `CCCC(c1ccc(C(=O)NCCC(=O)O)cc1)C(c1ccc(C)cc1)c1ccc(F)c2ccccc12` (stereo not drawn) [Example 12], 8.37.
Under `CCCC(c1ccc(C(=O)NCCC(=O)O)cc1)C(c1ccc(Cl)cc1)c1ccc(OC)c2ccc(OC)cc12` (stereo not drawn) [Example 21] stands 7.85; under `CCCC(c1ccc(C(=O)NCCC(=O)O)cc1)C(c1ccc(Cl)cc1)c1c(Cl)cc(OC)c2c(F)cccc12` (stereo not drawn) [Example 30], 7.28.
Turning to `CCCC(c1ccc(C(=O)NCCC(=O)O)cc1)C(c1ccc(Cl)cc1)c1ccc2cc(SC)ccc2c1` (stereo not drawn) [Example 36], the pIC50 is 9.08. Compared with the last compound, the pIC50 is 1.80 log units higher.
On to `CCCC(c1ccc(C(=O)NCCC(=O)O)cc1)C(c1ccc(Cl)cc1)c1ccc2cc(S(C)(=O)=O)ccc2c1` (stereo not drawn) [Example 37], for which the pIC50 was 8.54.
Take `CCC[C@H](c1ccc(C(=O)NCC(F)(F)C(=O)O)cc1)C(c1ccc(Cl)cc1)c1ccc(F)c2ccccc12` (stereo partly drawn) [Example 52]: the pIC50 was 7.01.
Under `CCC[C@H](c1ccc(C(=O)NCCS(=O)(=O)O)cc1)C(c1ccc(Cl)cc1)c1ccc(F)c2ccccc12` (stereo partly drawn) [Example 53] stands 8.47; under `CCC[C@H](c1ccc(C(=O)NCc2nnn[nH]2)cc1)C(c1ccc(Cl)cc1)c1ccc(F)c2ccccc12` (stereo partly drawn) [Example 55], 8.40; under `CCC[C@H](c1ccc(C(=O)Nc2nnn[nH]2)cc1)C(c1ccc(Cl)cc1)c1ccc(F)c2ccccc12` (stereo partly drawn) [Example 56], 8.12.

These data come from patent US8445538B2, “Glucagon receptor antagonist compounds” (Merck Sharp & Dohme Corp., priority 2008, dated 2013).
